# From US9827224B2, “Methods and compositions for ameliorating pancreatic cancer” (University of South Alabama, priority 2010, dated 2017)
# Columns and labels:
# [1] = human volunteers, intra-venous injection; cited from earlier work
# ERK = assay: Western blot of ERK activation (total and phospho-forms) in Panc1 and MiaPaCa cells; type: cell-based, Human; settings: for effect on CXCL12-induced activation of ERK pathway: pre-treatment 1 h (AMD3100, LY294002 20 μM, PD98059 25 μM), 15 min post-CXCL12, Panc1 and MiaPaCa
# Description: (§1) Cells were processed for protein extraction and western blotting using standard procedures. Briefly, cells were washed twice with PBS and scraped into NP-40 lysis buffer containing protease and phosphotase inhibitors. Cell lysates were passed through a needle syringe to facilitate the disruption of the cell membranes and were centrifuged at 14,000 rpm for 20 min at 4° C., and supematants were collected. Proteins (10-50 μg) were resolved by electrophoresis on 10% SDS-PAGE, transferred onto polyvinylidene difluoride (PVDF) membrane and subjected to standard immunodetection procedure using specific antibodies: AKT, pAKT ERK1/2, pERK1/2, Bcl-2, Bcl-xL, FAk, pFAk, Survivin, β-catenin and BAD (1:1000), pBAD (1:500), Notch-1 (1:200) and β-actin (1:20000). All secondary antibodies were used at 1:2500 dilutions. Blots were processed with ECL Plus Western Blotting detection kit and the signal detected using an LAS-3000 image analyzer (Fuji Photo Film Co., Tokyo, Japan).
# Panc1 and MiaPaCa cells [2] = assay: Cell viability assay (Vybrant MTT cell proliferation assay), results stated for both cell lines together; type: cell-based, Human; settings: for effect on CXCL12-induced chemo-resistance (gemcitabine): pre-treatment 1 h (AMD3100 5 μg/mL, LY294002 20 μM, PD98059 25 μM), then gemcitabine + CXCL12
# Description: (§2) After 72 h of treatment, cell growth was determined by using Vybrant MIT cell proliferation assay. Growth was calculated as percent (%)=[{(A/B)−1}×100], where A and B are the absorbance of treatment and control cells, respectively. To examine the effect of CXCR4 targeting, cells were pre-incubated with small molecule CXCR4 antagonist, AMD3100 (5 μg/mL), for 1 h. To delineate the role of Akt and ERK pathways, cells were pretreated for 1 h with LY294002 (20 μM) and PD98059 (25 μM), respectively.
# Akt = assay: Western blot of Akt activation (total and phospho-forms) in Panc1 and MiaPaCa cells; type: cell-based, Human
# Description: as §1
# MiaPaCa cells = assay: Cell viability assay (MTT), gemcitabine cytotoxicity; type: cell-based, Human; settings: 5.0 μM gemcitabine, 72 h, serum-containing media, compared to untreated cells
# Description: as §2
# Panc1 cells = assay: as above; type: cell-based, Human; settings: 5.0 μM gemcitabine, 72 h, serum-containing media, compared to untreated cells
# Description: as §2
# [3] = test system: Bcl-2, Bcl-xL, Notch-1 and survivin; assay: Western blot of survival protein expression in pancreatic cancer cells; type: cell-based, Human; settings: CXCL12-treated pancreatic cancer cells
# Description: as §1
# NF-κB = NF-κB transcriptional activity assay (luciferase reporter); type: cell-based, Human; settings: 24 h
# Description: To measure the LEF/TCF and NF-κB transcriptional activity, pancreatic cancer cells (1×10^5) were seeded in 12-well plates. After 24 h incubation, cells were transiently transfected with the luciferase promoter-reporter constructs (TOP flash, FOPflash or pGL4.32[luc2P/NF-kB-RE/Hygro]. TOPflash reporter plasmid contains three copies of the Tcf/Lef sites upstream of a thymidine kinase (TK) promoter and the Firefly luciferase gene, while in FOPflash, Tcf/Lef sites are mutated and therefore it serves as a control for measuring nonspecific activation of the reporter. Cells were also co-transfected with a reporter plasmid, containing Renilla reniformis luciferase gene downstream of the TK promoter, to control for the transfection efficiency. All transfections were performed using FuGene as a transfection reagent according to the manufacturers' recommendations. Cells were treated with CXCL12 (100 ng) 24 h post TOPflash/FOPflash or pGLA.32[luc2P/NF-kB-RE/Hygro] transfection, and after the next 24 h, total protein was isolated in passive lysis buffer. Luciferase activity was measured using the Dual Luciferase Assay System. All experiments were done in triplicate and relative luciferase activity reported as the fold induction after normalization for transfection efficiency.
# activated caspases = assay: Measurement of apoptosis in situ (CaspACE FITC-VAD-FMK); type: cell-based, Human; settings: gemcitabine 5 μM + CXCL12 100 ng/mL, compared to gemcitabine alone
# Description: Apoptosis was detected by staining the cells with CaspACE FITC-VAD-FMK solution in PBS for 2 h at 37° C. CaspACE™ FITC-VAD-FMK In Situ Marker is a fluorescent analog of the pan-caspase inhibitor Z-VAD-FMK (carbobenzoxy-valyl-alanylaspartyl-[O-methyl]-fluoromethylketone), which irreversibly binds to activated caspases and is a surrogate for caspase activity in situ. Following staining with CaspACE FITC-V AD-FMK, cells were fixed with 4% paraformaldehydede at room temperature and washed with PBS. The bound fluorescent marker was detected under a Nikon Eclipse TE2000-U fluorescent microscope (Nikon Instruments Inc, Melville, N.Y.).
# Panc1 and MiaPaCa cells [4] = assay: DNA fragmentation assay; type: cell-based, Human; settings: gemcitabine 5 and 10 μM + CXCL12 100 ng/mL, 48 h, compared to gemcitabine alone
# Description: Cells were washed twice with phosphate buffer saline (PBS) and DNA was extracted using DNAzol reagent. 2 μg of isolated DNA was resolved on 1.0% agarose gel containing ethidium-bromide (EtBr) and observed under a LAS-3000 image analyzer (Fuji Photo Film Co.).
# BAD = assay: Western blot of BAD phosphorylation in Panc1 and MiaPaCa cells; type: cell-based, Human; settings: CXCL12-treated Panc1 and MiaPaCa
# Description: as §1
# SHH = assay: CXCL12-induced sonic hedgehog (SHH) expression by Q-RT-PCR and Western blot; type: cell-based, Human; settings: CXCL12, 0-48 hours, Panc1 and MiaPaCa
# Description: Panc1 and MiaPaCa cells were treated with CXCL12 and expression of SHH was measured by Q-RT-PCR and Western blot analysis.
# Q-RT-PCR: Pancreatic cancer cells (Panc1 and MiaPaCa) were treated with CXCL12 for different time point (0, 4, 8, 24, 48 hours) for Q-RT-PCR analysis. To confirm the induced expression of sonic hegedehog (SHH), reverse transcriptase based-PCR (RT-PCR) analysis was performed, using SHH-specific primers. Briefly, cDNA was synthesized from 5 μg total RNA using SuperScript™ II Reverse Transcriptase (Invitrogen) and oligo(dT) primer. Two micro liter of first strand cDNA (1:10 dilution) was amplified using the SHH specific and GAPDH specific primers control. Amplified products were resolved through a 1.5% agarose gel containing ethidium bromide and analyzed using an Alpha Imager gel documentation system (Alphalnnotech, San Leandro, Calif.).
# Immunoblot analyses: NP-40 lysis buffer containing protease and phosphatase inhibitors (Roche Diagnostics. 50 μg protein was resolved by SDS-PAGE (8-12%). The primary antibodies were: anti-sonic hedgehog (SHH, 1:2000, rabbit monoclonal, Millipore. Secondary antibody (Santa Cruz Biotechnology) was horseradish peroxidase (HRP)-conjugated and was used a 1:2000 dilution. Bound immunocomplexes were detected using ECL Plus chemiluminescent detection reagent (GE Healthcare, Piscataway, N.J.).
# FAK = assay: Western blot of FAK activation in Panc1 and MiaPaCa cells; type: cell-based, Human; settings: CXCL12 100 ng/mL, 5-30 min
# Description: as §1
# [5] = CXCL12 100 ng/mL, 5-30 min, Panc1 and MiaPaCa
compound,measurement,setting,value
"c1cc(CN2CCCNCCNCCCNCC2)ccc1CN1CCCNCCNCCCNCC1 [AMD3100, Plerixafor, reference compound]",side effects,[1],minimal side effects
same,effect on CXCL12-induced activation of ERK pathway,ERK,inhibited
same,effect on CXCL12-induced chemo-resistance (gemcitabine),Panc1 and MiaPaCa cells [2],abolished
same,effect on CXCL12-induced growth promotion,"Panc1 and MiaPaCa cells [2]; pre-treatment 1 h, AMD3100 5 μg/mL, then CXCL12",abolished
same,effect on CXCL12-induced activation of Akt pathway,"Akt; pre-treatment 1 h (AMD3100 5 g/mL, LY294002 20 μM, PD98059 25 μM), 15 min post-CXCL12, Panc1 and MiaPaCa",inhibited
"COc1cccc(-c2cc(=O)c3ccccc3o2)c1N [PD98059, reference compound]",effect on CXCL12-induced activation of ERK pathway,ERK,specifically inhibited
same,effect on CXCL12-induced chemo-resistance (gemcitabine),Panc1 and MiaPaCa cells [2],significant negative impact
Nc1ccn([C@@H]2O[C@H](CO)[C@@H](O)C2(F)F)c(=O)n1 [gemcitabine],gemcitabine cytotoxicity,MiaPaCa cells,50.7%
same,gemcitabine cytotoxicity,Panc1 cells,52.3%
"CXCL12: Recombinant human CXCL12, a ligand for CXCR4","expression of Bcl-2, Bcl-xL, Notch-1 and survivin proteins",[3],significantly induced
same,activation of ERK (phospho-form),ERK; [5],significant activation
same,resistance to gemcitabine-cytotoxicity,"Panc1 and MiaPaCa cells [2]; CXCL12 100 ng/mL, gemcitabine 0-10 μM, both cell lines, p<0.05",induced significant resistance
same,induction of growth,"Panc1 and MiaPaCa cells [2]; CXCL12 100 ng/ml, absence of serum growth factors, range over MiaPaCa and Panc1",29-33%
same,increase of growth,"Panc1 and MiaPaCa cells [2]; CXCL12 100 ng/ml, presence of serum growth factors, range over MiaPaCa and Panc1",11-13%
same,induction of transcriptional activity of NF-κB responsive promoter,"NF-κB; MiaPaCa, CXCL12-treated",2.26 fold
same,induction of transcriptional activity of NF-κB responsive promoter,"NF-κB; Panc1, CXCL12-treated",2.98 fold
same,activity of caspases,activated caspases,enhanced activity of caspases
same,DNA fragmentation,Panc1 and MiaPaCa cells [4],reduced DNA fragmentation
same,level of phospho-BAD,BAD,increased level of phospho-BAD
same,activation of Akt (phospho-form),Akt; [5],significant activation
same,expression of SHH,SHH,induced expression of SHH
same,activation of FAK (phospho-form),FAK,significant activation
